Marks after values point to notes of the source that are not given here.
Key:
[1] = tested on: early stage CCIC colon/intestine and ex-GI xenograft tumors (CCR9/CCL25 axis); assay: CCIC xenograft tumor formation after tail vein injection, CCR9/CCL25 blocked before or with cell injection (Table 2); format: in vivo, NOD/SCID mice
Source text: CCR9 constitutive and inducible knockdown; Snail or CD26 knockdown in CCIC and NOTCH reporter CCIC. The lentiviral vector pEco-CMV-H1-shRNA-GFP encoding a shRNA hairpin sequence (CCR9: 5′-CTTGTACTGGC[…] ID NO:14; Snail: 5′-GAGCTGCAGG[…] ID NO:15; CD26: 5′-CATTCCTACAC[…] ID NO:16) was used for CCR9, Snail or CD26 expression knockdown and the lentiviral vectors pEco-CMV-H1-GFP (GenTarget Inc, San Diego, Calif.) and pEco-CMV-H1-scrambled-shRNA-GFP served as controls. To generate the lentiviral vectors, the above plasmids were transfected into HEK293T cells with the Genetargetlentivirus packaging mix (GenTarget Inc, San Diego, Calif.) according to the manufacturer's protocol. For CCR9 tetracycline inducible knockdown, the same shRNA hairpin sequence against CCR9 gene was inserted into pLenti-H1-shRNA-RSV (GFP-Puro) vector (GenTarget Inc, San Diego, Calif.) and packaged into lentivirus particles, which were used together with another TetR expression lentivirus (RFP-Bsd)(GenTarget Inc, San Diego, Calif.) to infect CCICs. After antibiotic selection and GFP/RFP dual FACS purification, the CCR9 shRNA knockdown can be induced by 1 ug/ml (in vitro) or 1 mg/ml (in vivo) doxycycline. NOTCH signaling reporter CCIC was generated by infecting CCIC with pCignalLenti RBP-Jk Reporter (GFP) ready lentivirus (SABiosciences, Inc.). After infecting CCIC lines with these lentiviral vectors, stable knockdown clones were obtained through antibiotic selection of blasticidin (Invitrogen, Carlsbad, Calif.). The efficiency of the CCR9, SNAIL or CD26 knockdown in CCIC was verified by Western Blotting and efficiency of NOTCH signaling reporter was tested by 2 μg/ml Jagged-1 (AnaSpec) treatment following by GFP-FACS sorting.
CCIC xenograft tumor formation in colon/intestine and other organs. 0.5-1×10^6CCIC or common CRC cells were injected into 6-8 weeks old non-obese diabetic/severe combined immunodeficient (NOD/SCID) mice (Jackson Laboratory, Bar Harbor, Me.) by tail vein injection. Tumor incidence was monitored 2-3× weekly. When mice became moribund, they were sacrificed immediately, necropsy performed and tumors harvested using a dissecting microscope. For ex vivo GFP imaging of tumor tissues, lentiviral infection by the pEco-CMV-GFP vector was used to generate CCIC lines that stably express GFP and maintained in puromycin selection. 10^6 of these fluorescent CCIC were systemically injected as described above. Intestinal tissues harvested at the time of sacrifice were analyzed for GFP expression with Cri Maestro Imaging Systems (Cambridge Research & Instrumentation Inc, Woburn, Mass.).
For the CCR9 study, native CCICs, CCICs with CCR9, Snail (SNAL1) or CD26 knockdown (or commonly used CRC cell lines such as HCT116, etc. as indicated), CCR9+ CCIC with CCR9 inducible knockdown were intravenously inoculated into the 6-8 weeks old NOD/SCID mice by tail vein. Mice that became moribund were sacrificed immediately, whereas the rest were closely monitored for 16 weeks before sacrifice. To test whether CCL25 antibody could inhibit the CCL25-CCR9 GI homing mechanism in vivo, a dose of 100 ug goat anti-mouse CCL25 neutralization antibody (R&D systems, Cat #AF-481-NA), was IP administrated to each mouse twice (the same dose and schedule as used in). As a negative control, a dose of 100 ug Goat IgG (R&D systems) was administered to each mouse in the control group. Then 1×10^6CCIC were injected into the mice 8 hours after or with the injection of the antibody. To test whether extra-GI metastasis is induced by CCR9/CCL25 signaling blockade, CCL25 neutralization antibody with the same dose was IP administrated to each mouse every three days or 1 mg/ml doxycycline in drinking water was given to mice every other days starting from the fourth week after CCIC inoculation until mice get moribund.

[2] = tested on: metastatic tumors made according to the present disclosure; assay: Oxaliplatin treatment of metastatic tumors versus primary GI tumors and subcutaneous xenografts; format: in vivo
[3] = mice tail vein injected with early stage CCIC, blockade before/concurrent with injection or constitutive shRNA KD

Compound | overall survival of mice vs. control ([1]; mice systemically injected with CCIC, Kaplan-Meier, FIG. 6C) | Ex-GI Tumor Incidence (%) [1, 3] | GI Tumor Incidence (%) [1, 3] | Mean Ex-GI Tumors/Mouse [1, 3] | Mean GI Tumors/mouse [1, 3] | Mean Progression (weeks) ([1]; mice tail vein injected with early stage CCIC, time until moribund, blockade before/concurrent with injection or constitutive shRNA KD) | chemoresistance of metastatic tumors relative to primary GI tumors and subcutaneous xenografts [2]
CCR9 KD: constitutive lentiviral shRNA against CCR9 (hairpin 5'-CTTGTACTGGCTCGTGTTCAT, SEQ ID NO:14) expressed in CCIC | significantly longer | 85.7% | 14.3* % | 105.0* | 0.3* | 13.0* weeks | –
O=C1[O][Pt]2([NH][C@@H]3CCCC[C@H]3[NH]2)[O]C1=O [oxaiplatin] | – | – | – | – | – | – | more chemoresistant
